Source: paper PMC4536076, “Chemical Library Screening and Structure-Function Relationship Studies Identify Bisacodyl as a Potent and Selective Cytotoxic Agent Towards Quiescent Human Glioblastoma Tumor Stem-Like Cells” (PLoS ONE, 2015)
Where a name gives a salt, the structure may show the parent alone. Read-outs that look alike come from different tables or passages of the source.

Columns and labels:
[1] = tested on: fetal neural stem cells (f-NSC); experiment: ATP-Glo dose-response, fetal neural stem cells; type: cell-based; conditions: Homo sapiens, Neural stem cell; ATP Glo readout, 24 h treatment
[2] = tested on: proliferating TG1 GSCs; conditions: primary screen, 50 μM, 24 h
Protocol: (§1) Proliferating or quiescent TG1 GSCs were seeded (30 000 and 40 000 viable cells/well, respectively) into 96-well opaque bottom plates (Greiner) with the Biomek FX robot (Beckman Coulter). Each compound from the Prestwick Library was then added (final concentration: 50 μM; 1% DMSO). Each molecule was tested once. Negative control wells (12/96 per assay plate) contained cells treated with 1% DMSO (final concentration) and positive control wells (4/96 per assay plate) contained cells treated with the fungal toxin ophiobolin A (Sigma Aldrich) at 50 μM with 1% DMSO. […] Luminescence in each well was measured with the Victor3 plate reader (PerkinElmer).
(§2) Relative ATP levels in each well were determined by calculating the percentage of luminescent signal in the well with respect to the average signal measured in negative control wells.
(§3) Primary screen hits were further tested in duplicate, at two concentrations (50 and 5 μM) on proliferating and quiescent TG1 GSCs. Cell plating and treatment with compounds were as for the primary screen. Hit selection/confirmation criteria for quiescent cells were as described above.

[3] = tested on: quiescent TG1 GSCs; experiment: ATP-Glo dose-response, quiescent TG1 GSCs; type: cell-based, human; conditions: for EC50: Homo sapiens; for EC50 / Quiescent TG1 GSCs EC50: 24 h; for fold increase in EC50 (activity decrease) compared to DDPM (compound 2): quiescent TG1 GSCs
Protocol: (§4) The EC50 value was determined for each compound by fitting the data points according to the following equation: y=Smax+Smin*(x*1/EC50)^n/1+(x*1/EC50)^n where y represents the expected response, x is the chemical compound concentration, S max and S min are the maximum and minimum responses recorded, respectively and n is the Hill coefficient. Curve fitting was performed using Microsoft Excel Solver component.
(§5) Proliferating or quiescent TG1 cells were seeded in 50 μL of their respective media (30 000 and 40 000 viable cells/well, respectively) into 96-well opaque bottom plates (Greiner, Courtaboeuf, France). Compound treatment was performed by adding 50 μL of compound solutions (in the presence of 2% DMSO in culture medium). […] All compounds were tested in triplicate in each experiment. Independent experiments were performed at least twice for almost all of the compounds.

[4] = tested on: proliferating TG1 GSCs; experiment: ATP-Glo dose-response, proliferating TG1 GSCs; type: cell-based, human; conditions: 24 h, 24 h; for EC50: Homo sapiens
Protocol: as §4, §5

[5] = tested on: primary astrocytes (HA cells); experiment: ATP-Glo dose-response, primary astrocytes; type: cell-based, human; conditions: ATP Glo readout, 24 h treatment
[6] = tested on: quiescent TG16 GSCs; experiment: ATP-Glo dose-response, quiescent TG16 GSCs; type: cell-based, human; conditions: ATP Glo readout, 24 h treatment, read-out: Q TG16 GSCs EC50
Protocol: as §4
(§6) Similar dose response curves were performed using GSCs isolated from GBM of two other patients (TG16 and OB1 GSCs) grown under proliferating and quiescent conditions.

[7] = tested on: proliferating OB1 GSCs; experiment: ATP-Glo dose-response, proliferating OB1 GSCs; type: cell-based; conditions: Homo sapiens; ATP Glo readout, 24 h treatment; read-out: P OB1 GSCs EC50
Protocol: as §4, §6

[8] = tested on: quiescent OB1 GSCs; experiment: ATP-Glo dose-response, quiescent OB1 GSCs; type: cell-based, human; conditions: ATP Glo readout, 24 h treatment, read-out: Q OB1 GSCs EC50
Protocol: as §4, §6

[9] = tested on: HEK 293 cells; experiment: ATP-Glo dose-response, HEK 293 cells; type: cell-based, human; conditions: ATP Glo readout, 24 h treatment
Protocol: The EC50 value was determined for each compound by fitting the data points according to the following equation: y=Smax+Smin*(x*1/EC50)^n/1+(x*1/EC50)^n where y represents the expected response, x is the chemical compound concentration, S max and S min are the maximum and minimum responses recorded, respectively and n is the Hill coefficient. Curve fitting was performed using Microsoft Excel Solver component. […]

[10] = tested on: quiescent TG1 GSCs; conditions: primary screen, 50 μM, 24 h
Protocol: as §1, §2, §3

[11] = tested on: proliferating TG16 GSCs; experiment: ATP-Glo dose-response, proliferating TG16 GSCs; type: cell-based, human; conditions: ATP Glo readout, 24 h treatment, read-out: P TG16 GSCs EC50
Protocol: as §4, §6

[12] = SAR study, ATP-Glo cell survival assay, triplicate, read-out: Quiescent TG1 GSCs EC50
[13] = SAR study, ATP-Glo cell survival assay, triplicate, read-out: Proliferating TG1 GSCs EC50
[14] = SAR study, ATP-Glo cell survival assay, triplicate
[15] = ATP Glo readout, 24 h treatment, n = 3, read-out: Q TG1 GSCs EC50
[16] = ATP Glo readout, 24 h treatment, n = 3, read-out: P TG1 GSCs EC50

COc1ccc(CCN2CCC(Nc3nc4ccccc4n3Cc3ccc(F)cc3)CC2)cc1 [Astemizole]
EC50 [1]: 6.3 ± 0.2 µM | Activity on proliferating TG1 GSCs (hit compounds reducing ATP levels) [2]: yes

Oc1ccc(C(c2ccc(O)cc2)c2ccccn2)cc1 [Compound 2, 4,4'-dihydroxydiphenyl(pyridine-2-yl)methane]
EC50 [3, 12]: 1 ± 0.5 µM | EC50 [4, 13]: > 100 µM

CC(=O)Oc1ccc(C(c2ccc(O)cc2)c2ccccn2)cc1 (stereo not shown) [Compound 3, 4-((4-hydroxyphenyl)(pyridin-2-yl)methyl)phenyl acetate]
EC50 [3, 12]: 1 ± 0.5 µM | EC50 [4, 13]: > 100 µM

COc1ccc(C(c2ccc(OC)cc2)c2ccccn2)cc1 [Compound 4, 4,4'-dimethoxydiphenyl(pyridin-2-yl)methane]
Quiescent TG1 GSCs EC50 [3, 14]: No activity | Proliferating TG1 GSCs EC50 [4, 14]: No activity

COc1ccc(C(c2ccc(O)cc2)c2ccccn2)cc1 (stereo not shown) [Compound 5, 4-hydroxyphenyl-4-methoxyphenyl-(pyridin-2-yl)-methane]
EC50 [3, 12]: 8 ± 6 µM | fold increase in EC50 (activity decrease) compared to DDPM (compound 2) [3]: 8 fold | EC50 [4, 13]: > 100 µM

Oc1ccc(Cc2ccccn2)cc1 [Compound 8, 2-(4-Hydroxybenzyl)pyridine]
Quiescent TG1 GSCs EC50 [3, 14]: No activity | Proliferating TG1 GSCs EC50 [4, 14]: No activity

Oc1ccc(C(c2ccccn2)c2ccccc2O)cc1 (stereo not shown) [Compound 9, (2-hydroxyphenyl)-(4-hydroxyphenyl)-(pyridin-2-yl)-methane]
EC50 [3, 12]: 57.6 ± 0.7 µM | Proliferating TG1 GSCs EC50 [4, 14]: No activity

Oc1ccc(C(c2ccc(Cl)cc2)c2ccccn2)cc1 (stereo not shown) [Compound 10, 4-hydroxyphenyl-4-chlorophenyl-pyridin-2-yl-methane]
EC50 [3, 12]: 4 ± 1.4 µM | EC50 [4, 13]: > 100 µM

Oc1ccc(C(c2ccccc2)c2ccc(O)cc2)cc1 [Compound 12, 4,4’-dihydroxyphenyl-phenyl-methane]
EC50 [3, 12]: 14.2 ± 8.8 µM | fold increase in EC50 (activity decrease) compared to DDPM (compound 2) [3]: at least 10 fold | EC50 [4, 13]: 60.8 ± 10.4 µM

Oc1ccc(Cc2ccc(O)cc2)cc1 [Compound 13, Bis(4-hydroxyphenyl)methane]
Quiescent TG1 GSCs EC50 [3, 14]: No activity | Proliferating TG1 GSCs EC50 [4, 14]: No activity

CC(=O)Oc1ccc(C(c2ccc(OC(C)=O)cc2)c2cccc[n+]2C)cc1 [Compound 14, 2-(bis(4-acetoxyphenyl)methyl)-1-methylpyridinium iodide]
EC50 [3, 12]: > 100 µM | EC50 [4, 13]: > 100 µM

Oc1ccc(C(c2ccc(O)cc2)c2cccnc2)cc1 [Compound 15, 4,4'-dihydroxyphenyl-3-pyridinyl-methane]
EC50 [3, 12]: 8 ± 3 µM | fold increase in EC50 (activity decrease) compared to DDPM (compound 2) [3]: ~ 8 fold | EC50 [4, 13]: > 100 µM

Oc1ccc(C(c2ccncc2)c2ccc(O)cc2)cc1 [Compound 16, 4,4'-dihydroxyphenyl-4-pyridinyl-methane]
EC50 [3, 12]: 39 ± 2 µM | fold increase in EC50 (activity decrease) compared to DDPM (compound 2) [3]: ~ 40 fold | EC50 [4, 13]: > 100 µM

Oc1ccc(C(c2ccc(O)cc2)c2cc(Br)ccn2)cc1 [Compound 18, 4,4'-dihydroxyphenyl-2-(4-bromopyridinyl)-methane]
EC50 [3, 12]: 0.36 ± 0.06 µM | Proliferating TG1 GSCs EC50 [4, 14]: No activity

CC(C)(C)OC(=O)NCCCCCCNC(=O)CCCC#Cc1cccc(C(c2ccc(O)cc2)c2ccc(O)cc2)n1 [Compound 19, tert-butyl(6-(6-(6-(bis(4-hydroxyphenyl)methyl)pyridin-2-yl)hex-5-ynamido)hexyl)carbamate]
EC50 [3, 12]: 3.84 µM | Proliferating TG1 GSCs EC50 [4, 14]: No activity

C=C(CC)C(=O)c1ccc(OCC(=O)O)c(Cl)c1Cl [Ethacrynic acid]
EC50 ([5]; Homo sapiens, Astrocyte): > 100 µM | EC50 ([6]; Homo sapiens): 12 ± 2 µM | EC50 [7]: 60 ± 20 µM | EC50 [3, 15]: 41 ± 11 µM | EC50 [1]: 21 ± 11 µM | EC50 ([8]; Homo sapiens): 24 ± 3 µM | EC50 ([9]; Homo sapiens, HEK293): > 100 µM | Activity on quiescent TG1 GSCs (hit compounds reducing ATP levels) [10]: yes | EC50 [4, 16]: 81 ± 11 µM | EC50 ([11]; Homo sapiens): > 100 µM

CC(NCCC(c1ccccc1)c1ccccc1)c1ccccc1 (stereo not shown) [Fendiline hydrochloride]
EC50 ([5]; Homo sapiens, Astrocyte): 42 ± 8 µM | EC50 ([6]; Homo sapiens): 45 ± 16 µM | EC50 [7]: 40 ± 13 µM | EC50 [3, 15]: 32 ± 1 µM | EC50 [1]: 11 ± 1 µM | EC50 ([8]; Homo sapiens): 48 ± 9 µM | EC50 ([9]; Homo sapiens, HEK293): 34 ± 9 µM | Activity on quiescent TG1 GSCs (hit compounds reducing ATP levels) [10]: yes | EC50 [4, 16]: 22 ± 1 µM | EC50 ([11]; Homo sapiens): 42 ± 1 µM

O=c1cc(-c2ccc(O)c(O)c2)oc2cc(O)cc(O)c12 [Luteolin, 3',4',5,7-tetrahydroxy-flavone]
EC50 ([5]; Homo sapiens, Astrocyte): > 100 µM | EC50 ([6]; Homo sapiens): 34 ± 4 µM | EC50 [7]: > 100 µM | EC50 [3, 15]: 20 ± 2 µM | EC50 [1]: 70 ± 36 µM | EC50 ([8]; Homo sapiens): 18 ± 4 µM | EC50 ([9]; Homo sapiens, HEK293): > 100 µM | Activity on quiescent TG1 GSCs (hit compounds reducing ATP levels) [10]: yes | EC50 [4, 16]: > 100 µM | EC50 ([11]; Homo sapiens): > 100 µM

C#C[C@]1(O)CC[C@H]2[C@@H]3CCC4=CCCC[C@@H]4[C@H]3CC[C@@]21C [Lynestrenol]
EC50 ([5]; Homo sapiens, Astrocyte): 20 ± 1 µM | EC50 ([6]; Homo sapiens): 28 ± 6 µM | EC50 [7]: 26 ± 5 µM | EC50 [3, 15]: 43 ± 8 µM | EC50 [1]: 23 ± 5 µM | EC50 ([8]; Homo sapiens): 56 ± 10 µM | EC50 ([9]; Homo sapiens, HEK293): 57 ± 8 µM | Activity on proliferating TG1 GSCs (hit compounds reducing ATP levels) [2]: yes | EC50 [4, 16]: 36 ± 2 µM | EC50 ([11]; Homo sapiens): 32 ± 2 µM

CC(=O)[C@H]1CC[C@H]2[C@@H]3CCC4=CC(=O)CC[C@]4(C)[C@H]3CC[C@]12C [Progesterone]
EC50 ([5]; Homo sapiens, Astrocyte): > 100 µM | EC50 ([6]; Homo sapiens): 25 ± 9 µM | EC50 [7]: 89 ± 29 µM | EC50 [3, 15]: 25 ± 11 µM | EC50 [1]: > 100 µM | EC50 ([8]; Homo sapiens): 23 ± 11 µM | EC50 ([9]; Homo sapiens, HEK293): 36 ± 10 µM | Activity on quiescent TG1 GSCs (hit compounds reducing ATP levels) [10]: yes | EC50 [4, 16]: > 100 µM | EC50 ([11]; Homo sapiens): 75 ± 6 µM

Beta-Escin
EC50 [5]: 7 ± 1 µM | EC50 [6]: 8 ± 1 µM | EC50 [8]: 6 ± 1 µM | EC50 [9]: 31 ± 1 µM | Activity on quiescent TG1 GSCs (hit compounds reducing ATP levels) [10]: yes | Activity on proliferating TG1 GSCs (hit compounds reducing ATP levels) [2]: yes | EC50 [11]: 6 ± 1 µM
